From article PMC9001978, “Determining the Effects of Differential Expression of GRKs and β-arrestins on CLR-RAMP Agonist Bias” (Frontiers in Physiology, 2022)
“Also recorded” adds a separate entry of the source.

Key:
[1] = system: Glucagon-like peptide-1 receptor (GLP-1R); assay: Effect on GLP-1R internalisation; type: cell-based; conditions: 100 μM, 30 min preincubation
[2] = system: β-arrestin-AP2 complex; conditions: ref Beautrait et al., 2017; cited from earlier work
Text: The canonical role of β-arrestins is the desensitisation of G protein signalling; steric hindrance to disrupt G protein-receptor association and acting as scaffolds for proteins which decrease the G protein activity and output e.g. phosphodiesterases (PDEs) ([Perry et al., 2002]). Additionally, β-arrestins mediate agonist dependent internalisation at many GPCRs, through the recruitment of β2-adaptin (AP2) and subsequently clathrin, to mediate endocytosis. […] Barbadin is an inhibitor of the β-arresti ...

[3] = system: CLR-RAMP complexes; assay: Effect of barbadin on cAMP accumulation in β-arrestin KO HEK293 cells; type: cell-based; conditions: 100 μM barbadin
[4] = system: CLR-RAMP complexes; assay: Effect of barbadin on cAMP accumulation at CLR-RAMP complexes; type: cell-based; conditions: all agonists, three CLR-RAMP complexes
[5] = system: CLR-RAMP complexes; assay: Effect of barbadin on CLR-RAMP internalisation; type: cell-based; conditions: any CLR-RAMP complex, at concentration that blocked GLP-1R internalisation
[6] = system: 5-HT2CR; conditions: ref He et al., 2021; cited from earlier work
[7] = system: free fatty acid receptor 2 (FFAR2); conditions: ref Wang et al., 2020; cited from earlier work
[8] = system: β2-adrenergic receptor (β2AR); conditions: ref Beautrait et al., 2017; cited from earlier work
Text: (§1) The data we have obtained related to agonist-dependent internalisation of CLR in the presence of barbadin (Figure 3C) appear contradictory when compared to our results obtained with the HEK293∆β-arr1/2 cell lines (Figure 4A).

[9] = system: protease-activated receptor 2 (PAR2); conditions: ref Jung et al., 2021; cited from earlier work
Text: as §1

[10] = system: V2-vasopressin receptor (V2R); conditions: ref Beautrait et al., 2017; cited from earlier work
Text: as §1

[11] = system: angiotensin-II type-1 receptor (AT1R); conditions: ref Beautrait et al., 2017; cited from earlier work
Text: as §1

In the case of `Nn1cnc2scc(-c3ccc(Cc4ccccc4)cc3)c2c1=O` [Barbadin], the “Effect on GLP-1R internalisation” value [1] is listed as “successfully block”, the “Effect on GLP-1R internalisation” value ([1]; listed as barbadin) is listed as “inhibit GLP-1R internalisation” and the “Effect on β-arrestin recruitment” value [2] is listed as “without inhibiting β-arrestin recruitment”. The “Inhibition of β-arrestin-AP2 interaction” value [2] was “inhibitor of the β-arrestin-AP2 interacting domain”, the “Effect of barbadin on cAMP accumulation” value [3] was “agonist dependent reduction in cAMP accumulation” and the “Effect of barbadin on cAMP accumulation” value [4] was “reduce cAMP accumulation”. For the same molecule, the “Effect of barbadin on cAMP accumulation” value ([4]; listed as barbadin) was “significantly reduce cAMP accumulation; also recorded: significantly attenuated cAMP signalling”, the “Effect of barbadin on agonist-mediated CLR internalisation” value [5] was “did not block agonist-mediated CLR internalisation; also recorded: no effect on receptor internalisation” and the “Block of receptor internalisation” value [6] was “successfully block”. The “Block of receptor internalisation” value [7] was “successfully block”, the “Block of receptor internalisation” value [8] was “successfully block” and the “Block of receptor internalisation” value [9] was “successfully block”. The “Block of receptor internalisation” value [10] was “successfully block” and the “Block of receptor internalisation” value [11] was “successfully block”.
